Values of other authors in patent publication US7780647B2, “Medical device with therapeutic agents” (Cook Incorporated, priority 2003, dated 2010).

Tests used:
[1] = tested on: smooth muscle cell proliferation; conditions: both in vitro and in vivo
[2] = tested on: restenosis of human coronary arteries; conditions: following stent use

SMILES: CC(=O)O[C@H]1C(=O)[C@@]2(C)[C@H]([C@H](OC(=O)c3ccccc3)[C@]3(O)C[C@H](OC(=O)[C@H](O)[C@@H](NC(=O)c4ccccc4)c4ccccc4)C(C)=C1C3(C)C)[C@]1(OC(C)=O)CO[C@@H]1C[C@@H]2O [paclitaxel]
- smooth muscle cell proliferation [1]: inhibits smooth muscle cell proliferation
- restenosis of human coronary arteries [2]: decrease restenosis
